Test results from PubChem BioAssay AID1259407 (Chemical Carcinogenesis Research Information System (CCRIS), 2018).
Active and inactive are the calls of the source. How the calls were made is not given here.

System: CCRIS mutagenicity, Ames/micronucleus/aberration tests
Assay: CCRIS mutagenicity studies
[1] = Test System: AMES SALMONELLA TYPHIMURIUM, Strain/Indicator: TA100, Metabolic Activation: NONE, Method: STANDARD PLATE
[2] = Test System: AMES SALMONELLA TYPHIMURIUM, Strain/Indicator: TA98, Metabolic Activation: NONE, Method: STANDARD PLATE
[3] = Test System: AMES SALMONELLA TYPHIMURIUM, Strain/Indicator: TA98, Metabolic Activation: S-9, Method: STANDARD PLATE
[4] = Test System: AMES SALMONELLA TYPHIMURIUM, Strain/Indicator: TA100, Metabolic Activation: S-9, Method: STANDARD PLATE
[5] = Test System: AMES SALMONELLA TYPHIMURIUM, Strain/Indicator: TA98, Metabolic Activation: NONE, Method: PREINCUBATION
[6] = Test System: AMES SALMONELLA TYPHIMURIUM, Strain/Indicator: TA98, Metabolic Activation: RAT, LIVER, S-9, KANECHLOR 500, Method: PREINCUBATION
[7] = Test System: AMES SALMONELLA TYPHIMURIUM, Strain/Indicator: TA98, Metabolic Activation: RAT, LIVER, S-9, AROCLOR 1254, Method: STANDARD PLATE
[8] = Test System: AMES SALMONELLA TYPHIMURIUM, Strain/Indicator: TA100, Metabolic Activation: RAT, LIVER, S-9, AROCLOR 1254, Method: STANDARD PLATE

## O=C(N/N=C/c1ccc([N+](=O)[O-])o1)c1ccc(O)cc1
Test System: AMES SALMONELLA TYPHIMURIUM, Strain/Indicator: TA100(FR1), Metabolic Activation: NONE, Method: STANDARD PLATE
  mutagenic call: active; positive
Test System: AMES SALMONELLA TYPHIMURIUM, Strain/Indicator: TA100(FR1), Metabolic Activation: RAT, LIVER, S-9, PHENOBARBITAL AND 3-METHYLCHOLANTHRENE, Method: STANDARD PLATE
  mutagenic call: active; positive
[1]
  mutagenic call: active; positive
Test System: AMES SALMONELLA TYPHIMURIUM, Strain/Indicator: TA100, Metabolic Activation: RAT, LIVER, S-9, PHENOBARBITAL AND 3-METHYLCHOLANTHRENE, Method: STANDARD PLATE
  mutagenic call: active; positive
Test System: CHINESE HAMSTER V-79, Strain/Indicator: V-79/6-THIOGUANINE, Metabolic Activation: NONE
  mutagenic call: inactive; negative
Test System: CHINESE HAMSTER V-79, Strain/Indicator: V-79/6-THIOGUANINE, Metabolic Activation: RAT, LIVER, HEPATOCYTES
  mutagenic call: inactive; negative
Test System: CHINESE HAMSTER V-79, Strain/Indicator: V-79/OUABAIN, Metabolic Activation: NONE
  mutagenic call: inactive; negative
Test System: CHINESE HAMSTER V-79, Strain/Indicator: V-79/OUABAIN, Metabolic Activation: RAT, LIVER, HEPATOCYTES
  mutagenic call: inactive; negative

## C[C@@H]1O[C@H](C)[C@@H](O)[C@H](O)[C@@H]1OS(=O)(=O)O
[2]
  mutagenic call: inactive; negative
[3]
  mutagenic call: inactive; negative
[1]
  mutagenic call: inactive; negative
[4]
  mutagenic call: inactive; negative
Test System: AMES SALMONELLA TYPHIMURIUM, Strain/Indicator: TA1535, Metabolic Activation: NONE, Method: STANDARD PLATE
  mutagenic call: inactive; negative
Test System: AMES SALMONELLA TYPHIMURIUM, Strain/Indicator: TA1535, Metabolic Activation: S-9, Method: STANDARD PLATE
  mutagenic call: inactive; negative
Test System: AMES SALMONELLA TYPHIMURIUM, Strain/Indicator: TA1537, Metabolic Activation: NONE, Method: STANDARD PLATE
  mutagenic call: inactive; negative
Test System: AMES SALMONELLA TYPHIMURIUM, Strain/Indicator: TA1537, Metabolic Activation: S-9, Method: STANDARD PLATE
  mutagenic call: inactive; negative
Test System: E. COLI, Strain/Indicator: WP2 UVRA, Metabolic Activation: NONE, Method: STANDARD PLATE
  mutagenic call: inactive; negative
Test System: E. COLI, Strain/Indicator: WP2 UVRA, Metabolic Activation: S-9, Method: STANDARD PLATE
  mutagenic call: inactive; negative

## O=[N+]([O-])c1cc(Cl)ccc1Cl
End Point: IN VITRO CHROMOSOMAL ABERRATIONS, Test System: CHL CELLS, Metabolic Activation: RAT, LIVER, S-9, SODIUM PHENOBARBITAL AND 5,6-BENZOFLAVONE
  mutagenic call: active; positive (structural changes); authors report equivocal results for ploidy chang
[5]
  mutagenic call: inactive; negative
Test System: AMES SALMONELLA TYPHIMURIUM, Strain/Indicator: TA98, Metabolic Activation: RAT LIVER S-9, PHENOBARBITAL AND BETA-NAPHTHOFLAVONE, Method: PREINCUBATION
  mutagenic call: inactive; negative
[6]
  mutagenic call: inactive; negative
[1]
  mutagenic call: inactive; negative
Test System: AMES SALMONELLA TYPHIMURIUM, Strain/Indicator: TA100, Metabolic Activation: RAT LIVER S-9, PHENOBARBITAL AND BETA-NAPHTHOFLAVONE, Method: PREINCUBATION
  mutagenic call: active; positive
Test System: AMES SALMONELLA TYPHIMURIUM, Strain/Indicator: TA100, Metabolic Activation: RAT, LIVER, S-9, KANECHLOR 500, Method: PREINCUBATION
  mutagenic call: active; positive
Test System: AMES SALMONELLA TYPHIMURIUM, Strain/Indicator: TA1535, Metabolic Activation: NONE, Method: PREINCUBATION
  mutagenic call: inactive; negative
Test System: AMES SALMONELLA TYPHIMURIUM, Strain/Indicator: TA1535, Metabolic Activation: RAT LIVER S-9, PHENOBARBITAL AND BETA-NAPHTHOFLAVONE, Method: PREINCUBATION
  mutagenic call: inactive; negative
Test System: AMES SALMONELLA TYPHIMURIUM, Strain/Indicator: TA1537, Metabolic Activation: NONE, Method: PREINCUBATION
  mutagenic call: inactive; negative
Test System: AMES SALMONELLA TYPHIMURIUM, Strain/Indicator: TA1537, Metabolic Activation: RAT LIVER S-9, PHENOBARBITAL AND BETA-NAPHTHOFLAVONE, Method: PREINCUBATION
  mutagenic call: inactive; negative
Test System: AMES SALMONELLA TYPHIMURIUM, Strain/Indicator: TA1538, Metabolic Activation: NONE, Method: PREINCUBATION
  mutagenic call: inactive; negative
Test System: AMES SALMONELLA TYPHIMURIUM, Strain/Indicator: TA1538, Metabolic Activation: RAT LIVER S-9, PHENOBARBITAL AND BETA-NAPHTHOFLAVONE, Method: PREINCUBATION
  mutagenic call: inactive; negative
Test System: E.COLI, Strain/Indicator: WP2UVRA, Metabolic Activation: NONE, Method: PREINCUBATION
  mutagenic call: inactive; negative
Test System: E.COLI, Strain/Indicator: WP2UVRA, Metabolic Activation: RAT LIVER S-9, PHENOBARBITAL AND BETA-NAPHTHOFLAVONE, Method: PREINCUBATION
  mutagenic call: inactive; negative

## C1=Cc2c3ccccc3cc3c2c1cc1ccccc13
Test System: CHINESE HAMSTER OVARY, Strain/Indicator: V-79/6-THIOGUANINE, Metabolic Activation: RAT, LIVER, S-9, AROCLOR 1254, Method: FLASK ASSAY
  mutagenic call: active; positive
Test System: CHINESE HAMSTER V-79, Strain/Indicator: V-79/6-THIOGUANINE, Metabolic Activation: RAT, LIVER, S-9, AROCLOR 1254, Method: SUSPENSION/PLATE
  mutagenic call: active; positive

## Cc1cccc(N=Nc2c(O)ccc3ccccc23)c1C
[2]
  mutagenic call: inactive; negative
Test System: AMES SALMONELLA TYPHIMURIUM, Strain/Indicator: TA98, Metabolic Activation: RAT, LIVER, S-9, Method: STANDARD PLATE
  mutagenic call: inactive; negative
[1]
  mutagenic call: inactive; negative
Test System: AMES SALMONELLA TYPHIMURIUM, Strain/Indicator: TA100, Metabolic Activation: RAT, LIVER, S-9, Method: STANDARD PLATE
  mutagenic call: inactive; negative

## C[C@@H](Br)C(=O)NCc1ccccc1
[1]
  mutagenic call: active; positive

## CCN(CC)c1ccc(-c2ccc(-c3ccc(-c4ccc(N(CC)CC)cc4)cc3)cc2)cc1
Test System: AMES SALMONELLA TYPHIMURIUM, Strain/Indicator: TA1538, Metabolic Activation: NONE, Method: STANDARD PLATE
  mutagenic call: inactive; negative
Test System: AMES SALMONELLA TYPHIMURIUM, Strain/Indicator: TA1538, Metabolic Activation: RAT, LIVER, S-9, AROCLOR 1254, Method: STANDARD PLATE
  mutagenic call: inactive; negative

## CCCCCCCCCc1ccccc1Oc1ccccc1CCCCCCCCC
Test System: AMES SALMONELLA TYPHIMURIUM, Strain/Indicator: TA97, Metabolic Activation: NONE, Method: STANDARD PLATE
  mutagenic call: inactive; negative
Test System: AMES SALMONELLA TYPHIMURIUM, Strain/Indicator: TA97, Metabolic Activation: S-9, Method: STANDARD PLATE
  mutagenic call: inactive; negative
[2]
  mutagenic call: inactive; negative
[3]
  mutagenic call: inactive; negative
[1]
  mutagenic call: inactive; negative
[4]
  mutagenic call: inactive; negative
Test System: AMES SALMONELLA TYPHIMURIUM, Strain/Indicator: TA102, Metabolic Activation: NONE, Method: STANDARD PLATE
  mutagenic call: inactive; negative
Test System: AMES SALMONELLA TYPHIMURIUM, Strain/Indicator: TA102, Metabolic Activation: S-9, Method: STANDARD PLATE
  mutagenic call: inactive; negative
Test System: E.COLI, Strain/Indicator: WP2 (PKM101), Metabolic Activation: NONE, Method: STANDARD PLATE
  mutagenic call: inactive; negative
Test System: E.COLI, Strain/Indicator: WP2 (PKM101), Metabolic Activation: S-9, Method: STANDARD PLATE
  mutagenic call: inactive; negative

## Nc1ccc(-c2ccc(N)cc2[N+](=O)[O-])c([N+](=O)[O-])c1
[5]
  mutagenic call: active; positive
[6]
  mutagenic call: active; positive

## O=C(O[C@@H]1Cc2c(O)cc(O)cc2O[C@H]1c1cc(O)c(O)c(O)c1)c1cc(O)c(O)c(O)c1
Test System: Ames Salmonella typhimurium, Strain/Indicator: TA102, Metabolic Activation: None, Method: Preincubation
  mutagenic call: inactive; negative
Test System: Ames Salmonella typhimurium, Strain/Indicator: TA102, Metabolic Activation: Rat, Liver, S-9, Aroclor 1254 in 0.154 M KCl, Method: Preincubation
  mutagenic call: inactive; negative

## c1ccc2c(c1)cc1ccc3cccc4ncc2c1c34
[7]
  mutagenic call: active; positive
[8]
  mutagenic call: active; positive

## O=Nc1ccc(NNc2ccccc2)cc1
[7]
  mutagenic call: active; positive
[8]
  mutagenic call: active; positive
